# In patent US11952358B2, “Flavan-3-ol analogs and anti-inflammatory activity” (Hong Kong Baptist University, priority 2021, dated 2024):
# Test system: IL-1β
# Test: ELISA of IL-1β secretion from LPS-stimulated RAW 264.7 cells
# Assay type: cell-based, mouse
# Settings: compound 50 μM 24 h, then LPS 1 μg/mL 2 h (FIG. 8)
# Procedure: RAW 264.7 cells were pretreated with each compound (50 μM) for 24 h followed by LPS (1 μg/mL) stimulation for another 2 h. The concentrations of IL-1β in RAW 264.7 cell culture supernatants were measured by ELISA kits and the inhibition rate of compound on the secretion of each pro-inflammatory cytokine was calculated. Data from three independent experiments were expressed as means±SD. *P<0.05, **P<0.01 compared with LPS-stimulated group.
# Cell culture The RAW 264.7 cell line was purchased from the Cell Bank of Shanghai Institute of Biochemistry & Cell Biology at the Chinese Academy of Sciences (Shanghai, China) and cultured in DMEM supplemented with 10% (v/v) fetal bovine serum (FBS), 100 U/ml penicillin and 100 […], in a stable environment with 5% CO2 at 37° C. Before used in the following in vitro experiments, RAW 264.7 cells were pretreated with synthesized flavan-3-ol (25, 50 μM) for 24 h followed by LPS (1 μg/mL) stimulation for another 2 h.
# Enzyme-Linked Immunosorbent Assay (ELISA) RAW 264.7 cells were treated with these synthesized flavan-3-ols (25, 50 μM) for 24 h followed by LPS (1 μg/mL) stimulation for another 2 h and the culture supernatant was collected. The concentrations of IL-1β, IL-6 and TNF-α in the culture supernatant of RAW 264.7 cells were determined according to the manufacturer's instructions of the Duo-set enzyme linked immune sorbent assay kits, purchased from R&D Systems Co. Ltd. (Minneapolis, MN, USA).
# The increased pro-inflammatory cytokines production in RAW 264.7 cells has been reported to play an influential role in the inflammation response. To evaluate the anti-inflammatory effects of these flavan-3-ols in vitro, ELISA kits were employed to investigate their effects on the LPS (lipopolysaccharide)-induced pro-inflammatory cytokines production of RAW 264.7 cells. After treating with the flavan-3-ols (25 and 50 μM) and stimulated by LPS, the levels of three main pro-inflammation cytokines including IL-1β ([…]), IL-6 (interleukin-6), and TNF-α (tumor necrosis factor-α) in culture supernatant from RAW 264.7 cells were measured by ELISA kits, and then the inhibition rates of the flavan-3-ols on the secretion of each pro-inflammatory cytokine were calculated by the formula shown as follows.
# [formula] In this formula, “L” refers to “the pro-inflammatory cytokine level in cell culture supernatant of LPS-induced group (L)” and “Lc” refers to “the pro-inflammatory cytokine level in cell culture supernatant of compound-treated group (Lc)”. Using this calculation, the reduced levels of pro-inflammation cytokines in the compound treated group would give higher values, which reflect higher inhibition rates.
# FIG. 4a-c show the effect of flavan-3-ols on pro-inflammatory cytokine secretion in vitro. RAW 264.7 cells were pretreated with each compound (25, 50 μM) for 24 h followed by LPS (1 μg/mL) stimulation for another 2 h. The concentrations of IL-1β, IL-6, TNF-α in RAW 264.7 cell culture supernatants were measured by ELISA kits and the inhibition rate of compound on the secretion of each pro-inflammatory cytokine was calculated.
row,Structure (SMILES),inhibition rate of IL-1β secretion compared with enantiomer and racemic form
1,"O[C@H]1Cc2ccccc2O[C@@H]1c1ccco1 [3o, (2S,3S)-2-(furan-2-yl)chroman-3-ol]",higher inhibition rates than their enantiomers
2,"CCC[C@@H]1Oc2ccccc2C[C@H]1O [3p′, (2S,3R)-2-propylchroman-3-ol]",higher inhibition rate of IL-1β secretion than its racemic mixture

# Test system: LPS-stimulated RAW 264.7 cells
# Test: RNA-sequencing analysis with GO and KEGG enrichment
# Assay type: cell-based, mouse
# Settings: 50 μM; vs LPS-stimulated group; KEGG-classified inflammation-related genes
# Procedure: RNA-sequencing analysis RAW 264.7 cells were treated with each flavan-3-ol (25, 50 μM) for 24 h followed by LPS (1 μg/mL) stimulation for another 2 h. Cells were collected and then directly prepared for cDNAs amplification and RNA-Seq library construction. Total RNA was isolated with TRIzol reagent from each group. A complementary DNA library was prepared and sequencing was performed according to the Illumina standard protocol developed by Suzhou GENEWIZ Biological Technology Co., Ltd. (https://www.genewiz.com). […] After filtering, reference genome and gene model annotation files were downloaded from a genome website browser (NCBI/UCSC/Ensembl). Indexes of the reference genome were built using Bowtie v2.0.6 and paired-end clean reads were aligned to the reference genome using TopHat v2.0.9. Bowtie was used for a BWT (Burrows-Wheeler Transformer) algorithm for mapping reads to the genome and Tophat can generate a database of splice junctions based on the gene model annotation file and thus achieve a better mapping result than other non-splice mapping tools. For the quantification of gene expression level, HTSeq V0.6.1 was used to count the read numbers mapped for each gene. The RPKM of each gene was calculated based on the gene read counts mapped to this gene. A differential expression analysis was performed using the DESeq R package (1.10.1). For clustering, the inventors clustered different samples to see the correlation using hierarchical clustering distance method with the function of heatmap, SOM (Self-organization mapping) and k means using silhouette coefficient to adapt the optimal classification with default parameter in R. The complete RNA-seq datasets in this manuscript captioned has been deposited at GEO database (http://www.ncbi.nlm.nih.gov/geo/) under accession ID GSE181052.
# Gene ontology (GO) and KEGG enrichment analysis GO enrichment analysis of differentially expressed genes was implemented by the GOseq R Package, in which gene length bias was corrected. GO analysis was performed with the DAVID online tool (https://david.ncifcrf.gov/). Top GO categories were selected according to the P-values. Pathways of differentially expressed genes were analyzed by the KEGG database (http://www.kegg.jp/kegg/). The inventors used KOBAS software to test the statistical enrichment of differential expression genes in KEGG pathways.
# RNA-seq analysis of downstream genes regulated by flavan-3-ols. […] RNA-seq analysis was performed to further study the effects of compounds 3m, 3o, 3p, 3ae and 3ag on gene transcriptional pathways related to inflammation. RAW 264.7 cells were used in the RNA-seq analysis, in which cells were pretreated with each compound (50 μM) for 24 h followed by LPS (1 μg/mL) stimulation for another 2 h. […] Next, the inventors focused on genes related to inflammatory reactions and inflammation-related diseases (inflammation-related genes) based on the gene and pathway classification of Kyoto Encyclopedia of Genes and Genomes (KEGG database).
# To further analyze the functional distribution of differentially-expressed genes in relation to different biological processes, cellular components and molecular functions, gene ontology (GO) enrichment analysis was performed. The histogram of GO enrichment of differentially-expressed genes was presented.
# Furthermore, to determine the biochemical metabolic pathways and signal transduction pathways involved in differentially expressed genes regulated by compound 3ag, KEGG pathway analysis was then performed.
row,Structure (SMILES),inflammation-related genes downregulated
1,"O[C@H]1Cc2ccccc2O[C@@H]1c1ccco1 [3o, (2S,3S)-2-(furan-2-yl)chroman-3-ol]",downregulated parts of inflammation-related genes
2,"CCC[C@H]1Oc2ccccc2C[C@@H]1O [3p, (2R,3S)-2-propylchroman-3-ol]",downregulated parts of inflammation-related genes

# Test system: not given
# Test: not given
# Settings: not given
row,melting point,Structure (SMILES)
1,138 to 139 °C,"O[C@H]1Cc2cc(Cl)ccc2O[C@@H]1c1ccc(Cl)cc1 [3ah, (2R,3S)-6-chloro-2-(4-chlorophenyl)chroman-3-ol]"
2,149 to 150 °C,"Cc1cc(C)c2c(c1)O[C@H](c1ccccc1)[C@@H](O)C2 [3u, (2R,3S)-5,7-dimethyl-2-phenylchroman-3-ol]"
3,151 to 152 °C,"COc1cccc2c1O[C@H](c1ccccc1)[C@@H](O)C2 [3z, (2R,3S)-8-methoxy-2-phenylchroman-3-ol]"
4,97 to 98 °C,"COCOc1ccc([C@H]2Oc3ccccc3C[C@@H]2O)cc1 [3e, (2R,3S)-2-(4-(methoxymethoxy)phenyl)chroman-3-ol]"
5,129 to 130 °C,"Cc1cc2c(cc1Cl)C[C@H](O)[C@@H](c1ccccc1)O2 [3af, (2R,3S)-6-chloro-7-methyl-2-phenylchroman-3-ol]"
6,91 to 92 °C,"Cc1ccccc1[C@H]1Oc2ccccc2C[C@@H]1O [3j, (2R,3S)-2-(o-tolyl)chroman-3-ol]"
7,89 to 90 °C,"COc1ccc([C@H]2Oc3ccccc3C[C@@H]2O)cc1 [3c, (2R,3S)-2-(4-methoxyphenyl)chroman-3-ol]"
8,65 to 66 °C,"COCOc1ccc2c(c1)C[C@H](O)[C@@H](c1ccccc1)O2 [3ab, (2R,3S)-6-(methoxymethoxy)-2-phenylchroman-3-ol]"
9,187 to 188 °C,"Oc1ccc2c(c1)C[C@H](O)[C@@H](c1ccccc1)O2 [3ac, (2R,3S)-2-phenylchromane-3,6-diol]"
10,80 to 81 °C,"O[C@H]1Cc2ccccc2O[C@@H]1c1ccco1 [3o, (2S,3S)-2-(furan-2-yl)chroman-3-ol]"
11,116 to 117 °C,"Cc1cccc2c1C[C@H](O)[C@@H](c1ccccc1)O2 [3q, (2R,3S)-5-methyl-2-phenylchroman-3-ol]"
12,151 to 152 °C,"Cc1cc2c(cc1C)O[C@H](c1ccccc1)[C@@H](O)C2 [3v, (2R,3S)-6,7-dimethyl-2-phenylchroman-3-ol]"
13,109 to 110 °C,"O[C@H]1Cc2ccccc2O[C@@H]1c1ccc(Cl)cc1 [3g, (2R,3S)-2-(4-chlorophenyl)chroman-3-ol]"
14,113 to 114 °C,"O[C@H]1Cc2ccccc2O[C@@H]1c1ccc(OCc2ccccc2)cc1 [3d, (2R,3S)-2-(4-(benzyloxy)phenyl)chroman-3-ol]"
15,109 to 110 °C,"Cc1ccc2c(c1)C[C@H](O)[C@@H](c1ccccc1)O2 [3r, (2R,3S)-6-methyl-2-phenylchroman-3-ol]"
16,69 to 70 °C,"COCOc1ccc2c(c1)C=C[C@H](c1ccccc1)O2 [1ab, (R)-6-(methoxymethoxy)-2-phenyl-2H-chromene]"
17,95 to 96 °C,"Cc1ccc2c(c1)O[C@H](c1ccccc1)[C@@H](O)C2 [3s, (2R,3S)-7-methyl-2-phenylchroman-3-ol]"
18,81 to 82 °C,"Oc1ccc2c(c1)C=C[C@H](c1ccccc1)O2 [1ac, (R)-2-phenyl-2H-chromen-6-ol]"
19,99 to 100 °C,"O[C@H]1Cc2ccccc2O[C@@H]1c1ccc(F)cc1 [3f, (2R,3S)-2-(4-fluorophenyl)chroman-3-ol]"
20,88 to 89 °C,"Cc1cccc([C@H]2Oc3ccccc3C[C@@H]2O)c1 [3k, (2R,3S)-2-(m-tolyl)chroman-3-ol]"
21,118 to 119 °C,"COc1ccc2c(c1)C[C@H](O)[C@@H](c1ccccc1)O2 [3x, (2R,3S)-6-methoxy-2-phenylchroman-3-ol]"
22,135 to 136 °C,"Cc1cc(C)cc([C@H]2Oc3ccccc3C[C@@H]2O)c1 [3l, (2R,3S)-2-(3,5-dimethylphenyl)chroman-3-ol]"
23,68 to 69 °C,"Cc1ccc([C@H]2Oc3ccccc3C[C@@H]2O)cc1 [3b, (2R,3S)-2-(p-tolyl)chroman-3-ol]"
24,116 to 117 °C,"COc1cccc2c1C[C@H](O)[C@@H](c1ccccc1)O2 [3w, (2R,3S)-5-methoxy-2-phenylchroman-3-ol]"
25,109 to 110 °C,"O[C@H]1Cc2ccccc2O[C@@H]1c1ccc(Br)cc1 [3h, (2R,3S)-2-(4-bromophenyl)chroman-3-ol]"
26,68 to 69 °C,"Cc1cccc2c1O[C@H](c1ccccc1)[C@@H](O)C2 [3t, (2R,3S)-8-methyl-2-phenylchroman-3-ol]"
27,92 to 93 °C,"C1=C[C@H](c2ccc(OCc3ccccc3)cc2)Oc2ccccc21 [1d, (R)-2-(4-(benzyloxy)phenyl)-2H-chromene]"
28,106 to 107 °C,"Oc1ccc([C@H]2Oc3ccccc3C[C@@H]2O)cc1 [compound 5, (2R,3S)-2-(4-hydroxyphenyl)chroman-3-ol]"
